Laboratory results from US9078831B2, “Cosmetic treatment method using a compound that can be condensed in situ and a UV-radiation-filtering agent” (L'Oreal, priority 2009, dated 2015).

Columns and labels:
[1] = Screening effectiveness (SPF) in vivo; design: species or system volunteers; conditions: spread over a deposited layer of APTES versus bare skin; 2 mg per cm^2; erythema read 24 h later
Protocol: (§1) The screening effectiveness and the persistence towards water of a solution of UV screening agents, applied to a condensed deposited layer of APTES, in comparison with a solution deposited on bare skin, are evaluated and compared at different concentrations. The UV screening agents tested are Phenylbenzimidazole Sulfonic Acid and Terephthalylidene Dicamphor Sulfonic Acid.
The studies were carried out on 5 volunteers of phototype I, II or III. The studies targeted exclusively at determining the screening effectiveness took place over 2 consecutive days, when 3 days were necessary for measurements of persistence towards water. On the first day, the screening formulation is applied at 2 mg per cm^2 on bare skin or on a condensed deposited layer of APTES. The volunteers are subsequently exposed to ultraviolet radiation. Erythema is read and the SPF is defined 24 h later. In the case of a test of persistence towards water, the same solutions or pairs of solutions are applied on the second day. The volunteers are immersed in 2 consecutive baths of water, each of 20 minutes, Wore being again exposed to UV radiation. The post-bath SPF is determined during the third test day. […]
The SPF values of the 8% and 12% solutions of UV screening agents are measured, which measurements are taken after spreading over bare skin or over deposited layers more or less concentrated in APTES. […]

[2] = Persistence towards water (water resistance, SPF before and after baths) in vivo; design: species or system volunteers; conditions: APTES layer under Example 2, in words
Protocol: as §1
The studies were carried out on 5 volunteers of phototype I, II or III. The studies targeted exclusively at determining the screening effectiveness took place over 2 consecutive days, when 3 days were necessary for measurements of persistence towards water. On the first day, the screening formulation is applied at 2 mg per cm^2 on bare skin or on a condensed deposited layer of APTES. The volunteers are subsequently exposed to ultraviolet radiation. Erythema is read and the SPF is defined 24 h later. In the case of a test of persistence towards water, the same solutions or pairs of solutions are applied on the second day. The volunteers are immersed in 2 consecutive baths of water, each of 20 minutes, Wore being again exposed to UV radiation. The post-bath SPF is determined during the third test day. The water resistance (WR) is defined as: […]
The water resistance of the 12% solution of UV screening agents was also evaluated in vivo, with and without APTES. […]

For `CCO[Si](CCCN)(OCC)OCC` [APTES, γ-aminopropyltriethoxysilane], the SPF in vivo [1] was “SPF increases in proportion as the amount of APTES spread beforehand over the skin increases” and the “resistance to water of the UV screening agents” value [2] was “significantly increase the resistance to water”.
